Source: publication PMC10810434, “Thymoquinone-protoflavone hybrid molecules as potential antitumor agents” (PLOS ONE, 2024)
Read-outs that look alike come from different tables or passages of the source.

Tests used:
HeLa = assay: In vitro antiproliferative MTT assay on HeLa; assay type: cell-based, human; conditions: up to 72 hours, mean of two independent measurements with three replicates each, read-out: Calculated IC50 ± SEM, HeLa
Description: (§1) Gynecological cancer cell lines of human origin including breast cancer like the triple negative MDA-MB-231 and estrogen receptor positive MCF-7, […] cervical adenocarcinoma (HeLa), and human glioblastoma (U-87) cell lines were used as in vitro models to study the antiproliferative effects of the evaluated compounds. All cell lines were cultivated in T-75 flasks in a minimal essential medium (MEM) supplemented with 10% heat-inactivated fetal bovine serum (FBS), 1% antibiotic-antimycotic mixture (penicillin-streptomycin-amphotericin B) and 1% non-essential amino acids. Non-cancerous human lung fibroblast cell line (MRC-5) was maintained in low glucose Dulbecco’s Modified Eagle Medium (DMEM) supplemented with 20% heat-inactivated FBS, 1% antibiotic-antimycotic mixture and 4 mM L-glutamine. The cells were incubated at 37°C in 5% CO^2 incubator. The cells were seeded in 96-well plates at a density of 5 x 10^3 in 100 μL per well, except for the U-87 and MRC-5 that were seeded at 1 x 10^4 density and incubated at the same conditions for overnight to allow the cells’ attachment to the well’s bottom before the treatment.
(§2) The compounds were dissolved in dimethyl sulfoxide (DMSO) as 10 mM standard stock solutions and kept at -20°C with minimum light exposure. Immediately before each experiment, the stock solution was used and diluted with a culture medium to get the final concentrations. The values of half-maximal inhibitory concentration (IC50) were determined by exposure of the cells into eight different concentrations of each tested compound (0.39, 0.78, 1.56, 3.125, 6.25, 12.5, 25 and 50 μM). Temozolomide (TMZ) and cisplatin were used as positive controls in the case of U-87 and the gynecological cell lines, respectively. The negative control wells included the cells with only MEM treatment. The plates were incubated for up to 72 hours under the same abovementioned incubation conditions. The colorimetric MTT assay was used to assess the compounds’ effect on cell proliferation. Briefly, 20 μL of MTT solution ([3-(4,5-dimethylthiazol-2-yl)-2,5-diphenyltetrazolium bromide], 5 mg/mL in PBS, Duchefa Biochemie BV, Haarlem, The Netherlands) was added to each well including the negative controls and kept under the usual incubation circumstances for additional four hours. Subsequently, the media was carefully aspirated and 100 μL of DMSO was added to each well and the plates were gently shaken for 30 min to solubilize the precipitated crystals of purple formazan. Absorbance was measured at a wavelength of 545 nm using a microplate UV-VIS reader (SPECTROstar Nano, BMG Labtech GmbH, Offenburg, Germany). The same procedure was performed using MRC-5 cells to determine the cancer selectivity of the most promising test compounds.
(§3) Cell viability data were collected from two separate experiments in triplicates and evaluated using GraphPad Prism 9.5.1 (GraphPad Software Inc., San Diego, CA, USA). The half-maximal inhibitory concentration (IC50) values were determined using the log inhibitor vs normalized response nonlinear regression model. Difference between the IC50 values of a hybrid and its corresponding fragments’ experimental combination was statistically evaluated using unpaired T-test. Cancer selectivity of the most promising test compounds was characterized by calculating and comparing their selectivity index (SI). The value of the parameter derives from the ratio of IC50 value of test compound on MRC-5 cells and that on U-87 cells. The higher the value, the better the cancer selectivity of the test compound.

MCF-7 = assay: In vitro antiproliferative MTT assay on MCF-7; assay type: cell-based, human; conditions: mean of two independent measurements with three replicates each, read-out: Calculated IC50 ± SEM, MCF-7
Description: as §1, §2, §3

MDA-MB-231 = assay: In vitro antiproliferative MTT assay on MDA-MB-231; assay type: cell-based, human; conditions: mean of two independent measurements with three replicates each, read-out: Calculated IC50 ± SEM, MDA-MB-231
Description: as §1, §2, §3

U-87 glioblastoma cells = assay: In vitro antiproliferative MTT assay on U-87; assay type: cell-based, human
Description: as §1, §2, §3

[1] = system: MRC-5 non-cancerous human lung fibroblast cell line; assay: In vitro antiproliferative MTT assay on MRC-5 (cancer selectivity); assay type: cell-based; conditions: for IC50: MRC5, Table 3, non-cancerous human lung fibroblasts, read-out: Calculated IC50 ± SEM, MRC-5; for Selectivity index SI = IC50 (MRC-5)/IC50 (U-87): MRC-5 vs U-87
Description: as §1, §2, §3

U-87 cells = assay: Combination assay: equimolar fragment mixtures vs hybrids on U-87; assay type: cell-based, human; conditions: for Hybrid vs corresponding 1:1 fragment mixture, antiproliferative activity in words: U-87 cells
Protocol: as §2
Combination study was performed by treating cells with equimolar mixtures of the abovementioned fragments or their hybrids, and corresponding cell viability data were comparatively evaluated. In this bioassay, at least two separate experiments were performed, each in triplicate. The dataset was then subjected to appropriate statistical analysis. The calculated IC50 values were subsequently employed to quantitatively assess the extent of pharmacological benefit obtained through the hybridization of fragments in comparison to the cytotoxic effect produced by the experimental combination of PA or its derivatives and TQ fragments.
as §3

[2] = system: MDA-MB-231, MCF-7, HeLa, U-87; assay: In vitro antiproliferative MTT assay, cancer cell line panel; assay type: cell-based; conditions: Homo sapiens; all tested cancer cell lines; read-out: IC50 values against cancer cells (range over cell lines)
Description: Gynecological cancer cell lines of human origin including breast cancer like the triple negative MDA-MB-231 and estrogen receptor positive MCF-7, […] cervical adenocarcinoma (HeLa), and human glioblastoma (U-87) cell lines were used as in vitro models to study the antiproliferative effects of the evaluated compounds. All cell lines were cultivated in T-75 flasks in a minimal essential medium (MEM) supplemented with 10% heat-inactivated fetal bovine serum (FBS), 1% antibiotic-antimycotic mixture (penicillin-streptomycin-amphotericin B) and 1% non-essential amino acids. […]
The compounds were dissolved in dimethyl sulfoxide (DMSO) as 10 mM standard stock solutions and kept at -20°C with minimum light exposure. […] Absorbance was measured at a wavelength of 545 nm using a microplate UV-VIS reader (SPECTROstar Nano, BMG Labtech GmbH, Offenburg, Germany). […]
Cell viability data were collected from two separate experiments in triplicates and evaluated using GraphPad Prism 9.5.1 (GraphPad Software Inc., San Diego, CA, USA). The half-maximal inhibitory concentration (IC50) values were determined using the log inhibitor vs normalized response nonlinear regression model. Difference between the IC50 values of a hybrid and its corresponding fragments’ experimental combination was statistically evaluated using unpaired T-test. […]

[3] = Homo sapiens, MCF7, up to 72 hours
[4] = Homo sapiens, MDA-MB-231, up to 72 hours
[5] = Homo sapiens, MTT, up to 72 hours, mean of two independent measurements with three replicates each, read-out: Calculated IC50 ± SEM, U-87
[6] = Homo sapiens, Table 3, U-87 glioblastoma, read-out: Calculated IC50 ± SEM, U-87 (Table 3)

IC50 (HeLa; Homo sapiens, HeLa)	IC50 (MCF-7; [3])	IC50 (MDA-MB-231; [4])	IC50 (U-87 glioblastoma cells; [5])	IC50 (U-87 glioblastoma cells; [6])	IC50 [2]	SMILES	IC50 (HeLa)	IC50 (MCF-7; up to 72 hours)	IC50 (MDA-MB-231; up to 72 hours)	IC50 (U-87 glioblastoma cells; MTT, up to 72 hours, mean of two independent measurements with three replicates each, read-out: Calculated IC50 ± SEM, U-87)	IC50 [1]	Selectivity index SI = IC50 (MRC-5)/IC50 (U-87) [1]	Hybrid vs corresponding 1:1 fragment mixture, antiproliferative activity in words (U-87 cells)	Fold stronger activity of hybrid than 1:1 mixture of its fragments (U-87 cells; U-87 glioblastoma cells, hybrid vs mixture of fragments 4 and 6)
> 100 µM	24 ± 1.37 µM	7.02 ± 0.17 µM	39.1 ± 3.53 µM			CC1=CC(=O)C(C(C)C)=CC1=O [Compound 2, 2-isopropyl-5-methylcyclohexa-2,5-diene-1,4-dione]								
> 100 µM	> 100 µM	38.2 ± 2.81 µM	77.7 ± 1.61 µM			CC1=C(CCC(=O)O)C(=O)C(C(C)C)=CC1=O [Compound 3, 3-(5-isopropyl-2-methyl-3,6-dioxocyclohexa-1,4-dien-1-yl)propanoic acid]								
> 100 µM	> 100 µM	12.4 ± 0.37 µM	88.7 ± 5.17 µM	88.7 ± 5.17 µM		CC1=CC(=O)C(C(C)C)=C(CCC(=O)O)C1=O [Compound 4, 3-(2-isopropyl-5-methyl-3,6-dioxocyclohexa-1,4-dien-1-yl)propanoic acid]					40.2 ± 1.04 µM			
1.06 ± 0.08 µM	1.2 ± 0.03 µM	0.52 ± 0.02 µM	1.16 ± 0.2 µM	1.16 ± 0.2 µM	0.51 to 1.2 µM	CC1=CC(=O)C(C(C)C)=C(CCC(=O)Oc2cc(O)c3c(=O)cc(C4(O)C=CC(=O)C=C4)oc3c2)C1=O [Compound 14, 5-hydroxy-2-(1-hydroxy-4-oxocyclohexa-2,5-dien-1-yl)-4-oxo-4H-chromen-7-yl 3-(2-isopropyl-5-methyl-3,6-dioxocyclohexa-1,4-dien-1-yl)propanoate]					5.1 ± 0.21 µM	4.40	synergism	ca. three
6.78 ± 0.28 µM	5.44 ± 1.32 µM	3.53 ± 0.17 µM	18.9 ± 3.42 µM			COC1(c2cc(=O)c3c(O)cc(OC(=O)CCC4=C(C(C)C)C(=O)C=C(C)C4=O)cc3o2)C=CC(=O)C=C1 [Compound 15, 5-hydroxy-2-(1-methoxy-4-oxocyclohexa-2,5-dien-1-yl)-4-oxo-4H-chromen-7-yl 3-(2-isopropyl-5-methyl-3,6-dioxocyclohexa-1,4-dien-1-yl)propanoate]							no apparent difference	
1.71 ± 0.16 µM	4.11 ± 0.34 µM	1.98 ± 0.06 µM	6.06 ± 0.4 µM			CCOC1(c2cc(=O)c3c(O)cc(OC(=O)CCC4=C(C(C)C)C(=O)C=C(C)C4=O)cc3o2)C=CC(=O)C=C1 [Compound 16, 2-(1-ethoxy-4-oxocyclohexa-2,5-dien-1-yl)-5-hydroxy-4-oxo-4H-chromen-7-yl 3-(2-isopropyl-5-methyl-3,6-dioxocyclohexa-1,4-dien-1-yl)propanoate]							no apparent difference	

Second part, the compound before the results:

SMILES	IC50 (HeLa; Homo sapiens, HeLa)	IC50 (MCF-7; [3])	IC50 (MDA-MB-231; [4])	IC50 (U-87 glioblastoma cells; [5])	IC50 (U-87 glioblastoma cells; [6])	IC50 [2]	IC50 (HeLa)	IC50 (MCF-7; up to 72 hours)	IC50 (MDA-MB-231; up to 72 hours)	IC50 (U-87 glioblastoma cells; MTT, up to 72 hours, mean of two independent measurements with three replicates each, read-out: Calculated IC50 ± SEM, U-87)	IC50 [1]	Selectivity index SI = IC50 (MRC-5)/IC50 (U-87) [1]	Hybrid vs corresponding 1:1 fragment mixture, antiproliferative activity in words (U-87 cells)	Fold stronger activity of hybrid than 1:1 mixture of its fragments (U-87 cells; U-87 glioblastoma cells, hybrid vs mixture of fragments 4 and 6)
N.N.[Cl][Pt][Cl] [Cis, cisplatin, reference compound]							16 ± 2 µM	6.55 ± 0.77 µM	9.71 ± 0.51 µM	9.13 ± 1.79 µM				
O=C1C=CC(O)(c2cc(=O)c3c(O)cc(O)cc3o2)C=C1 [Compound 6, Protoapigenone]	1.8 ± 0.09 µM	0.66 ± 0.06 µM	0.57 ± 0.07 µM	1.73 ± 0.11 µM	1.73 ± 0.11 µM						2.62 ± 0.2 µM	1.51		
COC1(c2cc(=O)c3c(O)cc(O)cc3o2)C=CC(=O)C=C1 [Compound 7]	5.51 ± 0.21 µM	3.95 ± 0.3 µM	2.23 ± 0.13 µM	7.03 ± 0.11 µM										
CCOC1(c2cc(=O)c3c(O)cc(O)cc3o2)C=CC(=O)C=C1 [Compound 8]	2.83 ± 0.12 µM	2.5 ± 0.11 µM	1.22 ± 0.03 µM	1.73 ± 0.06 µM	1.73 ± 0.06 µM						3.79 ± 0.25 µM	2.19		
CCCCOC1(c2cc(=O)c3c(O)cc(O)cc3o2)C=CC(=O)C=C1 [Compound 9]	1.88 ± 0.1 µM	2.01 ± 0.07 µM	0.82 ± 0.05 µM	1.5 ± 0.12 µM	1.5 ± 0.12 µM						3.56 ± 0.12 µM	2.37		
CC1=C(CCC(=O)Oc2cc(O)c3c(=O)cc(C4(O)C=CC(=O)C=C4)oc3c2)C(=O)C(C(C)C)=CC1=O [Compound 10]	2 ± 0.26 µM	1.65 ± 0.07 µM	1.27 ± 0.04 µM	6.16 ± 0.49 µM										
COC1(c2cc(=O)c3c(O)cc(OC(=O)CCC4=C(C)C(=O)C=C(C(C)C)C4=O)cc3o2)C=CC(=O)C=C1 [Compound 11, 5-hydroxy-2-(1-methoxy-4-oxocyclohexa-2,5-dien-1-yl)-4-oxo-4H-chromen-7-yl 3-(5-isopropyl-2-methyl-3,6-dioxocyclohexa-1,4-dien-1-yl)propanoate]	3.51 ± 0.17 µM	2.66 ± 0.11 µM	2.25 ± 0.13 µM	7.63 ± 0.46 µM									synergism	
CCOC1(c2cc(=O)c3c(O)cc(OC(=O)CCC4=C(C)C(=O)C=C(C(C)C)C4=O)cc3o2)C=CC(=O)C=C1 [Compound 12, 2-(1-ethoxy-4-oxocyclohexa-2,5-dien-1-yl)-5-hydroxy-4-oxo-4H-chromen-7-yl 3-(5-isopropyl-2-methyl-3,6-dioxocyclohexa-1,4-dien-1-yl)propanoate]	2.35 ± 0.15 µM	3.21 ± 0.07 µM	2.15 ± 0.08 µM	8.22 ± 0.73 µM										
CCCCOC1(c2cc(=O)c3c(O)cc(OC(=O)CCC4=C(C)C(=O)C=C(C(C)C)C4=O)cc3o2)C=CC(=O)C=C1 [Compound 13, 2-(1-butoxy-4-oxocyclohexa-2,5-dien-1-yl)-5-hydroxy-4-oxo-4H-chromen-7-yl 3-(5-isopropyl-2-methyl-3,6-dioxocyclohexa-1,4-dien-1-yl)propanoate]	1.4 ± 0.25 µM	1.68 ± 0.16 µM	0.99 ± 0.05 µM	3.43 ± 0.25 µM										
CCCCOC1(c2cc(=O)c3c(O)cc(OC(=O)CCC4=C(C(C)C)C(=O)C=C(C)C4=O)cc3o2)C=CC(=O)C=C1 [Compound 17, 2-(1-butoxy-4-oxocyclohexa-2,5-dien-1-yl)-5-hydroxy-4-oxo-4H-chromen-7-yl 3-(2-isopropyl-5-methyl-3,6-dioxocyclohexa-1,4-dien-1-yl)propanoate]	3.08 ± 0.46 µM	2.7 ± 0.09 µM	1.08 ± 0.08 µM	8.65 ± 1.15 µM										
Cn1nnc2c(C(N)=O)ncn2c1=O [TMZ, temozolomide, reference compound]				388 ± 43 µM	388 ± 43 µM						1090 ± 45.1 µM	2.82		
